According to patent US20250235499A1, “ANTI-OVARIAN CANCER PHARMACEUTICAL COMPOSITION AND ACTION TARGET THEREOF” (Zhejiang Chinese Medical University, priority 2024, published 2025):

Assays:
Assay type in all cases: cell-based, human
[1] = tested on: MCM2 protein in Hey cells; assay: MCM2 protein expression in ovarian cancer cell after intervention; details: 24 hours, 100 μmol/L CA, 6.25 μmol/L BDMC, compared to the Control group
Protocol: (§1) The effect of intervention on MCM2 protein expression in the SKOV3 and Hey ovarian cancer cells for 24 hours in the CA group using 100 μmol/L CA, the BDMC group using 6.25 μmol/L BDMC, and the CA+BDMC group using 100 μmol/L CA+6.25 μmol/L BDMC in Example 1 was shown in FIGS. 16A-16B, wherein A represented the expression of MCM2 protein in SKOV3 cells; B represented the expression of MCM2 protein in Hey cells compared to the Control group, #P<0.05, ##P<0.01; and compared with the CA+BDMC group, &P<0.05, &&P<0.01.

[2] = tested on: MCM2 protein in SKOV3 cells; assay: as above; details: SKOV3, 24 hours, 100 μmol/L CA, 6.25 μmol/L BDMC; compared to the Control group
Protocol: as §1

Hey ovarian cancer cells [3] = assay: Colony formation with MCM2 knockdown or overexpression
Protocol: (§2) SKOV3 and Hey ovarian cancer cells in logarithmic growth phase were knocked down with MCM2 (Control group, sh-NC group, sh-MCM2 group) and overexpressed with MCM2 (Control group, OE-NC group, OE-MCM2 group). The original culture medium was discarded, washed with PBS buffer, and digested with 0.1% trypsin. A corresponding culture medium was added to prepare a cell suspension. Cells were counted using a hemocytometer and a cell concentration was quantified at 10^3 cells/mL. 1500 μL of each well was inoculated into a 6 well plate, with 3 parallel wells in each group, and incubated in a 37° C. incubator containing 5% CO2 for 12 days. The medium was changed every three days. After the cultivation time was over, the six well plate was taken out, and the original culture medium was poured out. An appropriate amount of 4% paraformaldehyde was added to each well and fixed for 30 minutes. The plate was washed twice with a PBS buffer after pouring out the paraformaldehyde, an appropriate amount of 1% crystal violet solution was added for staining for 10 minutes, the crystal violet solution was poured out, and the plate was washed twice with PBS. Photos were taken, and the number of cell clones formed was counted. After knocking down MCM2 on the SKOV3 and Hey ovarian cancer cells and intervening with CA, BDMC, and combination administration, the results were shown in FIGS. 17A-17B. In FIGS. 17A-17B, A represented the formation of SKOV3 cell clones; and B represented the formation of Hey cell clones. Compared with the sh-NC group, #P<0.05, ##P<0.01; compared with the sh-NC+CA+BDMC group, &P<0.05, &&P<0.01; and ** P<0.01. In FIGS. 18A-18B, A represented the formation of SKOV3 cell clones; and B represented the formation of Hey cell clones. Compared with the OE-NC group, #P<0.05, ##P<0.01; compared with the OE-NC+CA+BDMC group, &P<0.05, &&P<0.01; and *P<0.05; and compared with the OE-MCM2+CA+BDMC group, ΔP<0.05, ΔΔP<0.01; and *P<0.05, ** P<0.01.

[4] = tested on: SKOV3 ovarian cancer cells; assay: as above
Protocol: as §2

[5] = tested on: E-cadherin, N-cadherin, Vimentin in Hey cells; assay: Expression of EMT related proteins in cells
Hey ovarian cancer cells [6] = assay: Cell cycle by flow cytometry (PI) with MCM2 knockdown or overexpression
Protocol: (§3) SKOV3 and Hey ovarian cancer cells in logarithmic growth phase were knocked down with MCM2 (Control group, sh-NC group, sh-MCM2 group) and overexpressed with MCM2 (Control group, OE-NC group, OE-MCM2 group). The original culture medium was discarded, washed with PBS buffer, and digested with 0.1% trypsin. A corresponding culture medium was added to prepare a cell suspension. Cells were counted using a hemocytometer and a cell concentration was quantified at 5×10^4 cells/mL. 1500 μL of each well was inoculated into a 6 well plate, with 3 parallel wells in each group, and incubated in a 37° C. incubator containing 5% CO2 for 24 hours. After the cultivation time was over, the six well plate was taken out and aspirated the original culture medium from the wells for later use. The PBS buffer was added to gently wash the cells three times. 500 μL of 0.1% trypsin was added to each well to wait for the cells to be blown off with a pipette, then the original culture medium from the wells was added to terminate digestion. A pipette was used to gently blow off all the cells on the wall of the six well plate. The cell suspension was aspirated, transferred to a centrifuge tube, and centrifuged at 4° C. and 1000 rpm for 5 minutes. The supernatant was discarded, and 1 mL of pre-cooled PBS buffer was added to gently resuspend the cells, and transferred to a 1.5 mL sterile centrifuge tube. The mixture was centrifuged at 4° C. and 1000 rpm for 5 minutes, the supernatant was discarded, and the bottom of the centrifuge tube was gently tapped to disperse the cells. 1 mL of pre-cooled 70% ethanol was added, blown and mixed well to form a cell suspension, and placed in a refrigerator at 4° C. for 24 hours. After fixation, a water bath kettle was opened in advance, the temperature was set to 37° C., the centrifugation was performed for 5 minutes at 4° C. and 1000 rpm, and the supernatant was discarded. 1 mL of pre-cooled PBS buffer was added and gently resuspended to wash the cells. The mixture was centrifuged at 4° C. and 1000 rpm for 5 minutes, the supernatant was discarded, and the bottom of the centrifuge tube was gently tapped to disperse the cells. 500 μL of PI staining working solution containing RNase was added to each cell sample to be tested, and placed in a 37° C. dark water bath for 30 minutes. A flow cytometer was used to detect red fluorescence at an excitation wavelength of 488 nm, while also measuring light scattering. A modfit 3.2 version was used for cell DNA cycle analysis.

[7] = tested on: SKOV3 ovarian cancer cells; assay: as above
Protocol: as §3

[8] = Hey OE-MCM2 cells (MCM2 overexpression), vs OE-MCM2 group
[9] = Hey OE-NC cells (empty vector), vs OE-NC group
[10] = Hey sh-MCM2 cells (MCM2 knockdown), vs sh-MCM2 group
[11] = Hey sh-NC cells (empty vector), vs sh-NC group
[12] = SKOV3 OE-MCM2 cells (MCM2 overexpression), vs OE-MCM2 group
[13] = SKOV3 OE-NC cells (empty vector), vs OE-NC group
[14] = SKOV3 sh-MCM2 cells (MCM2 knockdown), vs sh-MCM2 group
[15] = SKOV3 sh-NC cells (empty vector), vs sh-NC group

COc1ccc(-c2coc3cc(O)ccc3c2=O)cc1O [CA, calycosin]
expression of the MCM2 protein [1]: significantly decreased | expression of the MCM2 protein [2]: significantly decreased | number of plaques formed by cloning (Hey ovarian cancer cells [3]; [8]): no significant change | number of plaques formed by cloning (Hey ovarian cancer cells [3]; [9]): significantly reduced | number of plaques formed by cloning (Hey ovarian cancer cells [3]; [10]): no significant change | number of plaques formed by cloning (Hey ovarian cancer cells [3]; [11]): significantly reduced | number of plaques formed by cloning [4, 12]: no significant change | number of plaques formed by cloning [4, 13]: significantly reduced | number of plaques formed by cloning [4, 14]: no significant change | number of plaques formed by cloning [4, 15]: significantly reduced | expression of E-cadherin [5, 8]: no significant change | expression of N-cadherin [5, 8]: no significant change | expression of Vimentin [5, 8]: no significant change | expression of E-cadherin [5, 9]: significantly increased | expression of N-cadherin [5, 9]: significantly decreased | expression of Vimentin [5, 9]: significantly decreased | expression of E-cadherin [5, 10]: no significant change | expression of N-cadherin [5, 10]: no significant change | expression of Vimentin [5, 10]: no significant change | expression of E-cadherin [5, 11]: significantly increased | expression of N-cadherin [5, 11]: significantly decreased | expression of Vimentin [5, 11]: significantly decreased | percentage of G0/G1 phase cells (Hey ovarian cancer cells [6]; [8]): no significant change | percentage of G0/G1 phase cells (Hey ovarian cancer cells [6]; [9]): significantly increased | percentage of G0/G1 phase cells (Hey ovarian cancer cells [6]; [10]): no significant change | percentage of G0/G1 phase cells (Hey ovarian cancer cells [6]; [11]): significantly increased | percentage of G0/G1 phase cells [7, 12]: no significant change | percentage of G0/G1 phase cells [7, 13]: significantly increased | percentage of G0/G1 phase cells [7, 14]: no significant change | percentage of G0/G1 phase cells [7, 15]: significantly increased
